Like-named read-outs stand apart in the source and are kept apart here. One block for each compound: values may come before it.
Experiments:
[1] = tested on: lipoxygenase (LTB4 or 5HETE synthesis); assay: inhibition of LTB4 and 5-HETE synthesis by rat glycogen-elicited polymorphonuclear leukocytes; format: cell-based, rat (female Wistar); conditions: Leukocyte, rat PMN; for inhibition at 10 µM: + with * denotes potentiation
From the text: This is especially true with respect to 5,12-diHETE, which is also denoted as LTB4 [see Ford-Hitchinson, J. Roy. Soc. Med., 74, 831 (1981)]. Compounds which inhibit the PLA2 -mediated release of arachidonic acid thereby effectively prevent the oxidation of arachidonic acid to the various leukotriene products via the lipoxygenase cascade. Accordingly, the specificity of action of PLA2 inhibitors can be determined by the activity of test compounds in this assay, which measures the ability of compounds to inhibit the synthesis of LTB4 and 5-HETE by rat glycogen-elicited polymorphonuclear leukocytes (PMN) in the presence of exogenous substrate.
(§1) Rat polymorphonuclear leukocytes (PMNs) are obtained from female Wistar rats (150-200 g) which receive an injection of 6% glycogen (10 ml i.p.). Rats are sacrificed 18-24 hours post injection by CO2 asphyxiation and the elicited cells are harvested by peritoneal lavage using physiological saline (0.9% NaCl). The exudate is centrifuged at 400 xg for 10 minutes. The supernatant fluid is discarded and the cell pellet is resuspended to a concentration of 2.0×10^7 cells/mL in HBSS containing Ca^++ and Mg^++ and 10 μM L-cysteine.
(§2) To 1 mL aliquots of cell suspension, test drugs or vehicle are added, then preincubated at 37° C. for 10 minutes. A23187 (1 μM), [^3 H]-AA (3.0 μCi/mL) and unlabeled AA (1 μM) are then added and the samples are further incubated for 10 minutes. The reaction is terminated by centrifugation and pelleting cells. Supernatants are then analyzed by HPLC analysis on a 15 cm×4.6 mm ID supelcosil LC-18 (Supelco)(3M) column, using a two solvent system at a flow rate of 1.4 mL total flow as follows:
Injections: 140 μL of each supernatant is injected directly onto column and ^3 H arachidonic acid metabolites are monitored using an on-line radioactivity detector (Ramona, IN/US, Fairfield, N.J.).
Co-chromatography with standard [^3 H] leukotriene B4 (LTB4) in medium of stimulated PMN exposed to drug is compared to that found in medium of stimulated cells exposed to no drug, generating percent inhibition.
Results are expressed as percent inhibition at a given compound dose or as an IC50 value.

[2] = tested on: cyclooxygenase (PGE2 or TxB2 synthesis); assay: inhibition of synthesis of cyclooxygenase products PGE2 and TxB2 by rat polymorphonuclear leukocytes; format: cell-based, rat (female Wistar); conditions: Leukocyte, rat PMN; for inhibition at 10 µM: + with * denotes potentiation
Procedure: as §1, §2
In this assay, the procedure of Example 58 is carried out as described. However, in order to determine cyclooxygenase activity, the samples are co-chromatographed with authentic reference [^3 H]-TxB2 or [^3 H]-PGE2.
The results are calculated as in Example 58 and presented below: […]

[3] = target: T1, human synovial fluid PLA2 (Homo sapiens, UniProt P14555); assay: in vitro isolated phospholipase A2 assay, human synovial fluid PLA2; format: biochemical; conditions: for inhibition at 10 µM: + values given without explanation, read-out: % Inhibition HSF (human synovial fluid)
T1 construct: Purified human synovial fluid; from tissue; host or cells: human synovial fluid
T1 sequence (P14555 21-144): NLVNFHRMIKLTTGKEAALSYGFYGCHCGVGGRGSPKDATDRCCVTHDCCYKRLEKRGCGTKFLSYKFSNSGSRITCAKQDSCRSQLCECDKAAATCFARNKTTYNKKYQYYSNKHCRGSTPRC
Procedure: (§3) The compounds of the invention are tested in an in vitro isolated phospholipase A2 assay to determine the ability of the test compounds to inhibit the release of arachidonic acid from an arachidonic acid-containing substrate by the action of phospholipase A2 enzyme from human and non-human sources.
(§4) Into a 15 mL polypropylene tube are added the following:
(§5) ^3 H-AA E. coli substrate^1
(§6) Tris-HCl (0.5 M) pH 7.5^3
(§7) PLA2 25 Volume yielding 12%
(§8) 100 hydrolysis in 10 min.
(§9) *pre-incubate at room temperature 30 min prior to substrate addition.
(§10) ^6 Two human PLA2 enzymes are used: a) Semipurified human
(§11) platelet acid extract PLA2 (in 10 mM sodium acetate buffer, pH 4.5).
(§12) Remove protein precipitate by centrifugation at about 2200 rpm for 10
(§13) minutes. b) Purified human synovial fluid.
(§14) Incubate the 100 μL reaction mixture for 10 minutes at 37° C. in a shaking water bath. The reaction is terminated by the addition of 2 mL tetrahydrofuran, followed by vortexing. NH2 columns (100 μg/mL--Analytichem International) are conditioned with 0.5 mL tetrahydrofuran followed by 0.5 mL tetrahydrofuran/water (2 mL:0.1 mL, v/v).
(§15) The sample is loaded onto the columns and slowly drawn through them. The hydrolyzed arachidonic acid retained in the columns is eluted therefrom with 1 mL tetrahydrofuran/glacial acetic acid (2%). The arachidonic acid is transferred to scintillation vials and quantitated by β-counting analysis. A "total counts" sample is prepared by pipetting 25 μL ^3 H-arachidonate E. coli directly into a scintillation vial to which is added 1 mL tetrahydrofuran. 10 mL aquasol (scintillation cocktail) is added to all samples.

human platelet PLA2 = target: T2, human platelet PLA2 (Homo sapiens, UniProt P14555); assay: in vitro isolated phospholipase A2 assay, human platelet PLA2; format: biochemical; conditions: at 10 μM; + values given without explanation; read-out: % Inhibition HP (human platelet)
T2 construct: platelet acid extract PLA2; from tissue; host or cells: human platelets, semipurified acid extract
T2 sequence (P14555 21-144): T1 sequence (P14555 21-144)
Procedure: as §3, §4, §5, §6, §7, §8, §9, §10, §11, §12, §13, §14, §15

[4] = tested on: purified PLA2, from the diamond back cotton mouth snake (A. piscivorus piscivorus); assay: in vivo PLA2 murine paw edema assay; set-up: species or system A. piscivorus piscivorus PLA2 in CD-1 mice
[5] = tested on: platelet-activating factor (PAF) biosynthesis in human polymorphonuclear neutrophils (PMN); assay: platelet-activating factor biosynthesis in human polymorphonuclear neutrophils (in vitro phospholipase A2 assay); format: cell-based; conditions: Homo sapiens, Polymorphonuclear neutrophil; in this assay (PAF or LTB4 readout not stated)
Procedure: The compounds of the invention are tested in an in vitro phospholipase A2 assay to determine the ability of the compounds to inhibit the biosynthesis of platelet-activating factor and LTB4 in purified human neutrophils.
A leukocyte enriched blood sample obtained from a healthy donor is procured by leukophoresis using a Haemonetics model 30+ blood processor (Biological Specialties, Inc., Lansdale, Penn.). The top "platelet-rich" layer is removed after a low speed spin (35 xg, 15 min, 25° C.) of the sample. The remaining cell suspension is centrifuged (400 xg, 10 min, 25° C.) to sediment the remaining cells. The supernatant is discarded and the cell pellet resuspended in 120 ml HBSS (without Ca^++ /Mg^++). The cell suspension is subjected to ficoll-hypaque sedimentation (Histopaque 1077, 400 xg, 30 min, 25° C.). Contaminating erythrocytes are lysed by hypotonic shock (1 min). The cells are then washed once with 40 ml of HBSS and resuspended with HBSS (without Ca^++ /Mg^++) to a concentration of 2.5×10^7 cells/ml for further use. Greater than 95% purity is obtained, as assessed by microscopic examination.
One ml of human PMN (2.5×10^7 cells/ml) is incubated with vehicle or drugs (10 μl) for 10 minutes at 30° C. After preincubation, an equal volume of HBSS (1 ml) containing 2.4 mM CaCl2, 6 μM calcium ionophore A23187 and 50 μCi [^3 H]-acetate is then incubated at 30° C. for 15 minutes. An aliquot (100 μl) of the reaction mixture is taken out and mixed with 900 μl of 15% ethanol. LTB4 is extracted by using solid phase extraction on reverse phase C18 columns to remove excess [^3 H]-acetate and PAD. The C18 column is prewashed once with 2 ml of ethanol and water. The sample aliquot is acidified with 0.1N HCl to pH 3 before applying to the column. The column is then washed with 2 ml of water followed by 2 ml of 15% ethanol and 2 ml of petroleum ether to remove excess labeled acetate. The sample is eluted with 2 ml of ethyl acetate. The collected samples are dried with nitrogen and resuspended in 0.5 ml RIA buffer. The quantity of LTB4 in the sample is obtained from RIA determination. For PAF determination, the reaction is terminated by addition of 5 ml chloroform:methanol:acetic acid (2:1:0.04, v/v/v). [^3 H]-PAF is obtained by Bligh and Dyer extraction. The chloroform phase is removed and dried under nitrogen. The residue is redissolved in 75 μl of chloroform:methanol (80:20, v/v). [^3 H]-PAF is resolved from other phospholipids by TLC on RPC18 plates with a solvent system of chloroform:methanol:water (2:3:1, v/v/v) and is quantitated using a Berthold automated TLC linear analyzer.
Data presented are the mean +/- s.d. of the values relative to control A23187 stimulated cells for each experiment assayed in triplicate. Percent inhibition when used is calculated as:
% Inhibition=100-[(x.div.Control)×100].
Dose response analysis is performed by non-linear regression analysis for curve fitting and IC50 determination.

[6] = tested on: purified PLA2, from the diamond back cotton mouth snake (A. piscivorus piscivorus); assay: in vivo PLA2 murine paw edema assay; set-up: species or system A. piscivorus piscivorus PLA2 in CD-1 mice; conditions: p.o.; at +10 min
Procedure: The ability of the compounds of the invention to inhibit paw edema induced by the exogenous administration of PLA2 is measured in the in vivo PLA2 murine paw edema assay.
Non-fasted, male CD-1 mice (8 weeks old; 31-36 grams) are placed in plastic boxes in groups of six. The right hind paw volume is measured using mercury plethysmography (zero time). Compounds are dosed orally (0.5 mL of 0.5% Tween-80) 1 or 3 hours prior to PLA2 injection or intravenously (0.2 mL in 0.3% dimethylsulfoxide/saline) 3 minutes prior to PLA2 injection. A solution of purified PLA2, from the diamond back cotton mouth snake (A. piscivorus piscivorus) is prepared in saline at a concentration of 6 μg/mL. Fifty (50) μL (0.3 μg) of this PLA2 solution is injected subcutaneously into the right hind paw with a plastic 1 mL plastic syringe (27 gauge, 1" needle). Paw volume of the injected paw is measured again at 10 minutes, 30 minutes and 60 minutes after PLA2 injection. Animals are euthanized with CO2 at the completion of the study.
The paw edema is calculated by subtracting the zero time volume from the volume recorded at each time period. Mean paw edema for each treatment group is then calculated and expressed as (μL±S.E.). Drug effects are expressed as a percent change from control (vehicle) values. Statistical significance is determined by a one-way analysis of variance with LSD comparison to control (p<0.05). ED50 's are determined using […].

Compound: CCc1cccc2c3c([nH]c12)C(CC)(CC(=O)O)OCC3 (stereo not drawn) [etodolac, reference compound]
inhibition at 0.5 µM ([1]; at 0.5 μM): 21%
inhibition at 0.5 µM ([2]; at 0.5 μM): 100%

Compound: CCCCCC/C=C\CCCCCCCC(=O)C1=C(O)COC1=O [Example 26, 4-Hydroxy-3-((Z)-1-oxo-9-hexadecenyl)-2(5H)-furanone]
inhibition at 10 µM ([1]; read-out: % Inhibition 5-HETE): 85%
inhibition at 10 µM ([1]; read-out: % Inhibition LTB4): 82%
inhibition at 10 µM ([2]; read-out: % Inhibition PGE2): 6%
inhibition at 10 µM ([2]; read-out: % Inhibition TxB2): 1%
inhibition at 10 µM [3]: 1.7%
inhibition at 10 µM (human platelet PLA2): 24.4%
% Change in Edema 30 min ([4]; 1 mg/kg i.p.): -62%
% Change in Edema 60 min ([4]; 1 mg/kg i.p.): -38%
% Change in Edema 30 min ([4]; 10 mg/kg i.p.): -67%
% Change in Edema 60 min ([4]; 10 mg/kg i.p.): -43%

IC50 [5]: 1 µM
Compound: CC(=O)O[C@H]1C[C@@H]2[C@@]3(C)CCCC(C)(C)[C@@H]3CC[C@@]2(C)[C@@H]2CC=C(C=O)[C@H](C=O)[C@@]12C [scalaradial, reference compound]

Compound: C[C@@H]1C[C@H]2[C@@H]3CCC4=CC(=O)C=C[C@]4(C)[C@@]3(F)[C@@H](O)C[C@]2(C)[C@@]1(O)C(=O)CO [Dexamethasone, reference compound]
ED50 at +10 min. ([4]; p.o. 3 hr, at +10 min): 10 mg/kg

Compound: CCC/C=C\CCCCCCCCC(=O)C1=C(O)COC1=O [Example 23, 4-Hydroxy-3-((Z)-1-oxo-10-tetradecenyl)-2(5H)-furanone]
inhibition at 10 µM ([1]; read-out: % Inhibition 5-HETE): 93%
inhibition at 10 µM ([1]; read-out: % Inhibition LTB4): 83%
inhibition at 10 µM ([2]; read-out: % Inhibition PGE2): 1%
inhibition at 10 µM ([2]; read-out: % Inhibition TxB2): 8%
inhibition at 10 µM [3]: 44%
inhibition at 10 µM (human platelet PLA2): 52.7%
% Change in Edema 30 min ([4]; 1 mg/kg i.p.): -41%
% Change in Edema 60 min ([4]; 1 mg/kg i.p.): -20%
% Change in Edema 30 min ([4]; 10 mg/kg i.p.): -48%
% Change in Edema 60 min ([4]; 10 mg/kg i.p.): -28%

IC50 ([3]; Table IV, read-out: IC50 HSF (human synovial fluid)): 10.5 µM
inhibition at 10 µM [3]: 77%
inhibition at 10 µM (human platelet PLA2): 3%
Compound: O=C(/C=C/c1ccccc1)C1=C(O)COC1=O [Example 8, (E)-4-Hydroxy-3-(3-(phenyl)-1-oxo-2-propenyl)-2(5H)-furanone]
inhibition at 10 µM ([1]; read-out: % Inhibition LTB4): 10%
inhibition at 10 µM ([2]; read-out: % Inhibition TxB2): 1%

Compound: COc1cccc2c1cc([N+](=O)[O-])c1c(C(=O)O)cc3c(c12)OCO3 [Aristolochic Acid, reference compound]
ED50 at +10 min. [6]: Not Active
